According to BigSolDB 2.1:

CC(=O)C1C(=O)C=C(C)OC1=O (centres undefined)
Settings | solubility (mole fraction)
in 2-butanone, 288.35 K | 0.0125
in 2-butanone, 292.15 K | 0.0153
in 2-butanone, 296.45 K | 0.0165
in 2-butanone, 300.35 K | 0.0196
in 2-butanone, 304.05 K | 0.0227
in 2-butanone, 308.05 K | 0.0285
in 2-butanone, 312.15 K | 0.0315
in 2-butanone, 315.75 K | 0.037
in DMAc, 288.35 K | 0.0941
in DMAc, 292.15 K | 0.111
in DMAc, 296.45 K | 0.12
in DMAc, 300.45 K | 0.135
in DMAc, 304.45 K | 0.15
in DMAc, 308.25 K | 0.168
in DMAc, 312.15 K | 0.19
in DMAc, 316.35 K | 0.205
in DMF, 288.5 K | 0.0744
in DMF, 292.45 K | 0.0857
in DMF, 296.35 K | 0.093
in DMF, 299.95 K | 0.105
in DMF, 304.45 K | 0.123
in DMF, 307.85 K | 0.139
in DMF, 312.35 K | 0.162
in DMF, 315.85 K | 0.181
in DMSO, 288.15 K | 0.0267
in DMSO, 292.15 K | 0.0314
in DMSO, 296.15 K | 0.0383
in DMSO, 300.15 K | 0.0462
in DMSO, 304.15 K | 0.0544
in DMSO, 308.15 K | 0.0599
in DMSO, 312.15 K | 0.0738
in DMSO, 316.15 K | 0.0874
in acetone, 288.15 K | 0.0477
in acetone, 291.85 K | 0.0547
in acetone, 296.15 K | 0.0587
in acetone, 300.25 K | 0.0695
in acetone, 304.15 K | 0.0812
in acetone, 308.15 K | 0.0964
in acetone, 312.05 K | 0.111
in acetone, 316.25 K | 0.13
in acetonitrile, 288.35 K | 0.039
in acetonitrile, 292.35 K | 0.0489
in acetonitrile, 296.25 K | 0.0557
in acetonitrile, 300.35 K | 0.0634
in acetonitrile, 304.05 K | 0.0733
in acetonitrile, 308.15 K | 0.0887
in acetonitrile, 312.65 K | 0.107
in acetonitrile, 316.25 K | 0.123
in ethanol, 288.25 K | 0.00512
in ethanol, 291.95 K | 0.00652
in ethanol, 296.25 K | 0.00812
in ethanol, 300.35 K | 0.00941
in ethanol, 303.65 K | 0.0109
in ethanol, 308.55 K | 0.0135
in ethanol, 312.65 K | 0.0176
in ethanol, 316.15 K | 0.0217
in ethyl acetate, 288.45 K | 0.0499
in ethyl acetate, 292.45 K | 0.0571
in ethyl acetate, 295.95 K | 0.0646
in ethyl acetate, 300.25 K | 0.0714
in ethyl acetate, 304.05 K | 0.081
in ethyl acetate, 307.95 K | 0.0938
in ethyl acetate, 312.25 K | 0.109
in ethyl acetate, 316.35 K | 0.128
in ethyl formate, 288.05 K | 0.0536
in ethyl formate, 291.95 K | 0.061
in ethyl formate, 296.15 K | 0.067
in ethyl formate, 300.05 K | 0.0765
in ethyl formate, 304.15 K | 0.0894
in ethyl formate, 308.45 K | 0.104
in ethyl formate, 312.45 K | 0.119
in ethyl formate, 315.85 K | 0.135
in isopropanol, 288.05 K | 0.00448
in isopropanol, 292.35 K | 0.0056
in isopropanol, 296.55 K | 0.00709
in isopropanol, 300.15 K | 0.00876
in isopropanol, 304.65 K | 0.0105
in isopropanol, 308.15 K | 0.0127
in isopropanol, 312.35 K | 0.0168
in isopropanol, 315.65 K | 0.0202
in methanol, 288.05 K | 0.00588
in methanol, 292.35 K | 0.00716
in methanol, 296.05 K | 0.00781
in methanol, 300.15 K | 0.0104
in methanol, 303.95 K | 0.0113
in methanol, 308.55 K | 0.0149
in methanol, 312.15 K | 0.0174
in methanol, 316.05 K | 0.022
in n-pentanol, 287.75 K | 0.00604
in n-pentanol, 291.95 K | 0.00758
in n-pentanol, 296.25 K | 0.00959
in n-pentanol, 300.35 K | 0.0117
in n-pentanol, 304.15 K | 0.0148
in n-pentanol, 308.35 K | 0.0189
in n-pentanol, 312.15 K | 0.0233
in n-pentanol, 315.95 K | 0.0284
in n-propanol, 287.95 K | 0.00523
in n-propanol, 292.65 K | 0.00657
in n-propanol, 296.35 K | 0.00836
in n-propanol, 300.55 K | 0.00974
in n-propanol, 304.35 K | 0.0118
in n-propanol, 308.15 K | 0.0143
in n-propanol, 312.65 K | 0.0187
in n-propanol, 316.35 K | 0.0224
